The molecule `Cc1cc(N2CNC(=O)C23CCN(CCCn2c(=O)[nH]c4ccccc42)CC3)ccc1Cl` had a melting point of 209 °C. `CCOCc1nc2c(N)nc3cc(OCCN4CCOCC4)ccc3c2n1CC(C)(C)O` came in with a melting point of 161 to 163 °C. The molecule `CN(c1cccnc1Cl)S(=O)(=O)c1ccccc1[N+](=O)[O-]` returned a melting point of 116 to 118 °C. `O=S(CCN1C=CC=CC=C1)c1ccccc1` (stereo not given) showed a melting point of 195 °C.

In the case of `COc1ccc(C(=O)Nc2ccc(C(=O)c3ccccc3)cc2)cc1`, the melting point lay within 171 to 174 °C.

Turning to `COc1cc(Nc2nccc(Nc3ccc(OCc4ccccc4)cc3)n2)cc(OC)c1OC`, the melting point was 161 to 164 °C. The molecule `CNC(=O)N1CCC(C(c2ccc(F)cc2)N(Cc2ccc(F)cc2)C(=O)NC)CC1` (stereo not given) showed a melting point of 120 to 162 °C.

The molecule `O=[N+]([O-])c1ccnc(Nc2nccs2)c1` registered a melting point of 230 to 233 °C. For `CCCCC(=O)N(Cc1ccc(OC(F)(F)F)c(Cl)c1)c1cc(F)cc(-c2nnn[nH]2)c1`, the melting point came out at 137 °C. Molecule `Cc1ccc(C(=O)c2[nH]c3cc(Cl)ccc3c2CC(=O)O)nc1` yielded a melting point of 235 to 238 °C. `Cn1c(C(=O)N2CCCC2)cc2cc(OCCNCC(O)COc3ccccc3)ccc21` (stereo not given): the melting point turned out to be 130 °C. Molecule `O=[N+]([O-])c1ccc(-n2nnnc2-c2ccccc2Br)cc1` yielded a melting point of 169 to 170 °C. In turn, `Cc1ccc(C2C(=O)CCCC2=O)c(C)c1` displayed a melting point of 143 to 145 °C. On to `CC(=O)CSc1ccc(S(C)(=O)=O)cc1`, for which the melting point lay in the range of 95 to 97 °C. In turn, `COc1ccc(C(=O)C2C(=O)N(C(N)=O)c3ccc(Cl)cc32)s1` (stereo not given) gave a melting point of 180 to 182 °C. Regarding `COc1cc(-c2cnc3[nH]cc(C(=O)C4(C)CCCC(C)C4)c3n2)cc(OC)c1OC` (stereo not given), the melting point lay in the range of 229 to 231 °C.

In turn, `Cc1nc2ccc(S(=O)(=O)n3c(COC(C)(C)C(=O)O)cc4cc(Cl)ccc43)cc2s1` yielded a melting point of 172 to 174 °C.

`CC1=NNC(c2ccc3c(c2)Nc2nccnc2S3)=NN1` returned a melting point of 233 to 235 °C. In turn, `c1ccc(NCCN2CCN(c3cccc4[nH]ccc34)CC2)nc1` showed a melting point of 153 to 160 °C. As for `COC(=O)c1ccc(Cl)cc1NC(=O)CSc1cccc(C)c1`, the melting point was 75 to 77 °C. Then `NCc1ccc(N2CCN(c3ccc(CCC(=O)O)cc3)C2=O)cc1`, with over 260 °C; and `C#CCN(C)Cc1ccc([N+](=O)[O-])cc1`, with 47 to 49 °C; and `CCN(CC)Cc1nnc2n1-c1ccc(Cl)cc1C(c1ccccc1)=NC2`, with 130 to 132 °C.

For the molecule `COc1ccc(S(=O)(=O)Nc2cccnc2Nc2cccc(F)c2)cc1`, the melting point was in the range of 180 to 181 °C. Turning to `CCOCc1nc2c(c3cc(OCc4ccccc4)ccc3n3nnnc23)n1CC(C)C`, the melting point was determined as 184 °C. As to `C=C1CC(c2ccc(Br)s2)N(C)C1=O` (stereo not given), the melting point was 177 to 180 °C. Molecule `Clc1ccc(N2CC3CCC(C2)N3Cc2ccccc2)cc1` showed a melting point of 115 to 117 °C. The molecule `CCCc1c(C#N)c(C(F)F)nc(C(F)(F)F)c1C(=O)OCC` came in with a melting point of 40 to 41 °C. `NC(=O)/C=C1/c2cc(F)ccc2C(O)C1O` (stereo not given) gave a melting point of 212 to 220 °C.

With `c1ccc(Nc2nc[nH]c3ncc(-c4ccccc4)c2-3)cc1`, the melting point fell in the range of 208 to 209 °C. With `O=C(CCc1ccncc1)NC(Cc1c[nH]c2ccccc12)C(=O)CCc1cc(C(F)(F)F)cc(C(F)(F)F)c1` (stereo not given) the figure was 108 °C. In turn, `CC(O)(C(=O)Nc1ccc(C(=O)c2ccccc2)c(F)c1)C(F)(F)F` (stereo not given) registered a melting point of 132 to 134 °C. As for `CNn1cc(C(=O)O)c(=O)c2cc(F)c(N3CCN(C)CC3)cc21`, the melting point lay in the range of 299 to 301 °C.

With `COc1cc2c3ccc(OC)c(OC)c3n(Cc3c(Cl)cccc3Cl)c2cc1OC`, the melting point fell in the range of 207 to 210 °C. Take `CCCCN(C)c1nsc(NC(=O)NC)c1C#N`: the melting point lay within 109 to 110 °C.

With `Cc1ncsc1C(=O)Nc1ccc(-n2nc(C(F)(F)F)c(Cl)c2C2CC2)nc1`, the melting point is 144 to 149 °C. On to `C1COCCN2CCSCCSCCN(CCO1)CCSCCSCC2`, for which the melting point worked out at 86 °C. Turning to `Nc1cc(Cl)ccc1-c1noc(=O)[nH]1`, the melting point lay within 159 to 161 °C. `Oc1cc2c(cc1OCCCOc1ccccc1)OCC2`: the melting point lay within 106 to 107 °C.

In the case of `CC[C@@H]1O[C@](C#CC2CC2)(C(F)(F)F)c2c(ccc(F)c2F)NC1=O` (relative stereo), the melting point lay within 180 to 181 °C. For `CC(CCC(=O)NN1CCN(C)CC1)C1CC=C2C3=C(CCC21C)C1(C)CCC(O)C(C)(C)C1CC3` (stereo not given), the melting point was in the range of 189 to 191 °C.

`COC(=O)CCCc1cc2nc(Cl)ccc2n1S(=O)(=O)c1ccccc1C(F)(F)F` gave a melting point of 127 °C. Then `CCCCCS(=O)(=O)NC(=O)CCCCc1cc(OCCCC)nn1Cc1ccc(Cl)cc1Cl`, with 91 to 93 °C; and `NC(=O)c1[nH]c2cccnc2c1Sc1ccc(Cl)cc1Cl`, with 266 °C; and `Cc1cc(-c2cc(C(F)(F)F)n3ncc(C(=O)Nc4cccc(S(=O)(=O)N5CCN(C)CC5)c4)c3n2)ccc1Cl`, with 143 °C.

Turning to `Cc1cn2ccccc2c1[N+](=O)[O-]`, the melting point fell in the range of 137 to 139 °C.

`COc1ccc([N+](=O)[O-])c2c1C(=O)CCC2` yielded a melting point of 65 to 71 °C. With `CCCCn1cc(C(=O)O)c2ccc(Cl)cc21`, the melting point lay in the range of 149 to 151 °C.

On to `COc1ccc2c(c1)C(=O)N(c1ccc(C(C)C)cn1)C2`, for which the melting point lay within 109 to 110 °C. `N#Cc1cc(C=NO)ccc1-n1cncn1` yielded a melting point of 198 to 200 °C. Then `Cc1c(CNCC2CCOCC2)[nH]c2ccc(NC(=O)c3ccc(OC[C@@H]4CCCO4)cc3)cc12`, with 146 to 147 °C; and `NC(=O)c1nnn(Cc2ccccc2C(F)(F)F)c1N`, with 197 to 198 °C; and `COc1c(C)c(C)c2c(c1C)C(CO)C(C)(C)O2` (stereo not given), with 79 to 81 °C. The molecule `CC#CCOc1cc(C=O)ccc1OC(F)F` yielded a melting point of 46 to 47 °C.

As for `CCCOc1ccc(C(=O)Nc2ccccc2NC(=O)c2ccc(OCCC)cc2)cc1`, the melting point came to 195 °C. In the case of `CNC(=O)c1nc(-c2ccccc2)c(-c2ccc(=O)n(C(C)C)n2)s1`, the melting point is 165 to 168 °C.

On to `CSc1c2c3c(n1C)C(=O)C(=O)C(Cl)=C3NCC2`, for which the melting point is 205 °C. In turn, `CC(C)CNCc1cc2cc(NC(=O)c3ccc(C#CC4(O)CCC4)cc3)ccc2n1C` displayed a melting point of 168 to 169 °C. `FC(F)Sc1nnc(-c2ccccn2)s1` registered a melting point of 90 to 92 °C. With `CN(C)c1cc(CC(C#N)=CNc2ccccc2)cc(N(C)C)c1N1CCCCC1` the figure was 200 to 202 °C; with `COc1ccccc1C(=O)NCCc1ccc(-c2ccc(O)cc2)cc1`, 118 °C; with `O=C1NCCN1C1CCN(CCC2CS(=O)c3ccccc3O2)CC1` (stereo not given), 145 °C. The molecule `CNC(=O)Cn1c(Cl)ccc1Cl` displayed a melting point of 193 to 194 °C.

The molecule `CN1CCN(c2nn(C(=O)c3ccccc3)c3ccc(Cl)cc23)CC1` registered a melting point of 105 to 107 °C. In the case of `COc1ccccc1Oc1c(NS(=O)(=O)c2cccs2)nc(-c2ncccn2)nc1OCCOc1ncc(Br)cn1`, the melting point was over 300 °C. Then `CCOC(=O)C(Cc1ccc(OCc2ccccc2)cc1)Oc1ccc(Cl)cc1` (stereo not given), with 63 to 64 °C; and `O=C1CCCC2=C1C(c1cccc(C(F)(F)F)c1)C1=C(CCCC1)N2` (stereo not given), with 250 to 251 °C; and `Cc1ccc2c(c1)C1=NNC(=O)CC1CS2` (stereo not given), with 217 to 219 °C. `C=CCN1C2CCC1C1CCC2N1C(c1ccc(C(=O)N2CCCCC2)cc1)c1cccc(OC)c1` (stereo not given) returned a melting point of 134 to 136 °C. Turning to `CCOC(=O)Cc1c(C(=O)OCC)c(O)c(C(=O)c2ccc(Cl)cc2)n1C`, the melting point was 145 to 147 °C. For the molecule `CCOC(=O)c1cc(C)n(-c2cccc(I)c2)c1-c1ccccc1`, the melting point lay within 143 to 144 °C.

With `O=C1Nc2ccccc2N(C(=O)CCN2CCCCC2)c2ccc(Cl)cc21`, the melting point is 170 to 172 °C. The molecule `CCCC(=O)C(=CNc1ccc(CO)cc1)C(=O)OCC` gave a melting point of 44 to 46 °C. On to `CCCc1nc2c(N)nc(C)c(C)c2n1CCCC(C)=O`, for which the melting point was 148 to 150 °C. `Cc1ccc(C=Cc2ccc(N(c3ccccc3)c3ccc4c5c(cccc35)CC4)cc2)cc1` came in with a melting point of 148 to 149 °C. The molecule `OC(CNCCNc1cccc2cn[nH]c12)COc1ccccc1` (stereo not given) came in with a melting point of 117 to 119 °C. As for `CC(=O)/C(=C/I)c1ccccc1`, the melting point was 97 °C. With `NC(=O)c1ccc(NC(=O)C2CCCN(Cc3ccccc3)C2)cc1` (stereo not given) the figure was 211 to 212 °C; with `CCCCCc1ccc(-c2ncc(O)cn2)c(F)c1F`, 104 to 105 °C.

Molecule `O=C(O)CCCCCCc1nc2c(F)c(F)cc(F)c2s1` had a melting point of 116 to 118 °C.

The molecule `COc1cc2c(c3c1OC(C)(C)C3)C(c1cccc(Br)c1)=NCC2(C)C` had a melting point of 127 to 129 °C. The molecule `COc1cc2c(cc1O)CCN(C(C)=O)C2` showed a melting point of 139 to 140 °C. In turn, `COC(=O)CN1CCN2C(Cc3cc(OC)c(OC)cc3C2c2ccccc2)C1` (stereo not given) displayed a melting point of 110 to 113 °C. As for `COC(=O)c1cc(C[C@@H]2COc3ccc(OCc4nc5cc(F)ccc5s4)cc3[C@@H]2O)ccc1OC` (relative stereo), the melting point was in the range of 160 to 162 °C. In the case of `Cc1nc2cc3c(cc2[nH]1)[nH]c(=O)n3C`, the melting point was found to be 300 °C. Turning to `Cc1c(NC(=O)c2ccc(-c3ccc(F)cc3)cc2)ccc2cc(CN(C(C)C)C(C)C)cnc12`, the melting point lay in the range of 179 to 180 °C. On to `CCOC(=O)c1[nH]c2cccc3c2c1CCC3O` (stereo not given), for which the melting point lay within 166 to 170 °C.

As for `NS(=O)(=O)c1ccccc1CCCl`, the melting point is 168 to 171 °C. For the molecule `O=C(Nc1ccc(N2C[C@H]3CN(C(=O)OCc4ccccc4)C[C@H]3C2)cc1)OCc1ccccc1`, the melting point lay in the range of 145 to 146 °C. With `CC(C)(C)C(=O)OCC(COC(=O)C(C)(C)C)OCn1cnc2c(=O)[nH]c(N)nc21` the figure was 230 to 232 °C.

For orientation: melting point means the temperature of the solid-liquid transition.

For the origin of these results see a melting point compilation (Tetko et al.; mined from patent text by program, amines drawn as free bases though some values may be those of a salt).
